Data published in ChEMBL document CHEMBL4145659, “Discovery of a Series of Indole-2 Carboxamides as Selective Secreted Phospholipase A2 Type X (sPLA2-X) Inhibitors” (ACS Med Chem Lett, 2018).
Each block holds one molecule with its values, some of them ahead of it. The source made the active and inactive calls. No cut-off for these calls is given here.

Experiments:
[1] = target: T1, Phospholipase A2 group V (Homo sapiens) (UniProt P39877); test: Inhibition of recombinant human sPLA2-5 expressed in Escherichia coli BL21(DE3) at 30 uM using 1-palmitoyl-2-oleoyl-sn-glycero-3-phosphocholine as substrate pretreated for 20 mins followed by substrate addition and measured after 60 mins
T1 sequence (whole entry): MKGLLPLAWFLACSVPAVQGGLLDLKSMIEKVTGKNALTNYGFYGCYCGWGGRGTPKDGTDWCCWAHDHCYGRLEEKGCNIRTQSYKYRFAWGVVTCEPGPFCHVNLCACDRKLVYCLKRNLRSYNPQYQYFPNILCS

[2] = target: T2, Phospholipase A2, membrane associated (Homo sapiens, UniProt P14555); test: Inhibition of recombinant human sPLA2-2A expressed in Escherichia coli BL21(DE3) using 1-palmitoyl-2-oleoyl-sn-glycero-3-phosphocholine as substrate pretreated for 20 mins followed by substrate addition and measured after 60 mins
T2 sequence (P14555 whole entry): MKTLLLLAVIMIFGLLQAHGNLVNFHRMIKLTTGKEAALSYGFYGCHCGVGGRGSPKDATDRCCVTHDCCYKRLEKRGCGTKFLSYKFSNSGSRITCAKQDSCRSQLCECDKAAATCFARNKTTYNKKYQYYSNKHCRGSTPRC

[3] = target: T3, Group 10 secretory phospholipase A2 (Homo sapiens, UniProt O15496); test: (§1) Inhibition of recombinant human sPLA2-10 expressed in Escherichia coli BL21(DE3) using 1-palmitoyl-2-oleoyl-sn-glycero-3-phosphocholine as substrate pretreated for 20 mins followed by substrate addition and measured after 60 mins
T3 sequence (O15496 whole entry): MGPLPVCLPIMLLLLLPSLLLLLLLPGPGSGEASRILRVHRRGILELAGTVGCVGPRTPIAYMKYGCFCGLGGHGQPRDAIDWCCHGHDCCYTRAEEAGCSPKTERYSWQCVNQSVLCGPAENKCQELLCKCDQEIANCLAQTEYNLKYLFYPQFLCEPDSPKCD

[4] = target: T4, Phospholipase A2, membrane associated (Homo sapiens) (UniProt P14555); test: Inhibition of recombinant human sPLA2-2A expressed in Escherichia coli BL21(DE3) at 30 uM using 1-palmitoyl-2-oleoyl-sn-glycero-3-phosphocholine as substrate pretreated for 20 mins followed by substrate addition and measured after 60 mins
T4 sequence (whole entry): T2 sequence (P14555 whole entry)

[5] = target: T3, Group 10 secretory phospholipase A2; test: Inhibition of recombinant human sPLA2-10 expressed in Escherichia coli BL21(DE3) using HDL as substrate pretreated for 20 mins followed by substrate addition and measured after 60 mins
[6] = target: T5, Group 10 secretory phospholipase A2 (Homo sapiens) (UniProt O15496); test: as §1
T5 sequence (whole entry): T3 sequence (O15496 whole entry)

Phospholipase A2 group V = target: T6, Phospholipase A2 group V (Homo sapiens, UniProt P39877); test: Inhibition of recombinant human sPLA2-5 expressed in Escherichia coli BL21(DE3) using 1-palmitoyl-2-oleoyl-sn-glycero-3-phosphocholine as substrate pretreated for 20 mins followed by substrate addition and measured after 60 mins
T6 sequence (P39877 whole entry): T1 sequence (whole entry)

[7] = Volume of distribution at steady state in Sprague-Dawley rat at 1 µmol/kg, iv by LC/MS analysis; conditions: in vivo, read-out: Vdss
[8] = Oral bioavailability in Sprague-Dawley rat at 4 µmol/kg administered via gavage by LC/MS analysis; conditions: in vivo
[9] = Clearance in Sprague-Dawley rat at 1 µmol/kg, iv by LC/MS analysis; conditions: in vivo
[10] = AUC in Beagle dog at 1 µmol/kg, iv by LC/MS analysis; conditions: in vivo
[11] = AUC in Sprague-Dawley rat at 4 µmol/kg, po administered via gavage by LC/MS analysis; conditions: in vivo
[12] = AUC in Sprague-Dawley rat at 1 µmol/kg, iv by LC/MS analysis; conditions: in vivo
[13] = Clearance in Beagle dog at 1 µmol/kg, iv by LC/MS analysis; conditions: in vivo
[14] = Intrinsic clearance in human hepatocytes assessed per million cells at 1 uM measured after 2 to 60 mins; assay type: ADME, cell-based, Hepatocyte; conditions: read-out: CLH
[15] = Volume of distribution at steady state in Beagle dog at 1 µmol/kg, iv by LC/MS analysis; conditions: in vivo, read-out: Vdss
[16] = target: T7, Group 10 secretory phospholipase A2 (Mus musculus, UniProt Q9QXX3); test: Inhibition of mouse sPLA2-10 using 1-palmitoyl-2-oleoyl-sn-glycero-3-phosphocholine as substrate pretreated for 20 mins followed by substrate addition and measured after 60 mins
T7 sequence (Q9QXX3 whole entry): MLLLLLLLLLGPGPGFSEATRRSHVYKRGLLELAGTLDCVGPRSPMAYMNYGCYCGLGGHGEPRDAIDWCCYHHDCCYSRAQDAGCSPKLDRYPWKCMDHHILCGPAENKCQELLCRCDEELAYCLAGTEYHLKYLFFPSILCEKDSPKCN

inhibition [1]: inactive | IC50 [2]: 4.4 µM | IC50 [3]: 0.17 µM
SMILES: CCc1ccc2cc(C(N)=O)n(-c3cccc(CCC(=O)O)c3)c2c1

inhibition [1]: inactive | inhibition [4]: inactive | IC50 [3]: 0.23 µM
SMILES: Cc1ccc2cc(C(N)=O)n(-c3cccc(CCC(=O)O)c3)c2c1

inhibition [1]: inactive | IC50 [2]: 3.6 µM | IC50 [5]: 0.37 µM | IC50 [3]: 0.068 µM
SMILES: NC(=O)c1cc2ccc(OC(F)F)cc2n1-c1cccc(CCC(=O)O)c1

inhibition [6]: inactive
SMILES: NC(=O)c1cc2cccnc2n1-c1cccc(CCC(=O)O)c1

IC50 [2]: 0.89 µM | IC50 [5]: 0.48 µM | IC50 (Phospholipase A2 group V): 3.7 µM | IC50 [3]: 0.043 µM
SMILES: NC(=O)c1cc2ccc(C(F)(F)F)cc2n1-c1cccc(CCC(=O)O)c1

inhibition [1]: inactive | IC50 [2]: 5.7 µM | IC50 [5]: 1.1 µM | IC50 [3]: 0.09 µM
SMILES: NC(=O)c1cc2ccc(Cl)cc2n1-c1cccc(CCC(=O)O)c1

inhibition [6]: inactive
SMILES: NC(=O)c1cc2sccc2n1-c1cccc(CCC(=O)O)c1

inhibition [1]: inactive | IC50 [2]: 3.9 µM | IC50 [5]: 0.99 µM | IC50 [3]: 0.11 µM
SMILES: N#Cc1ccc2cc(C(N)=O)n(-c3cccc(CCC(=O)O)c3)c2c1

inhibition [1]: inactive | inhibition [4]: inactive | IC50 [3]: 0.99 µM
SMILES: NC(=O)c1cc2ccccc2n1-c1cccc(CCC(=O)O)c1

IC50 [3]: > 30 µM
SMILES: NC(=O)c1cc2ccccc2n1-c1ccccc1

IC50 [3]: > 30 µM
SMILES: NC(=O)CCc1cccc(-n2c(C(N)=O)cc3ccccc32)c1

IC50 [3]: 2.7 µM
SMILES: Cc1ccc2c(c1)cc(C(N)=O)n2-c1cccc(CCC(=O)O)c1

IC50 [3]: 26.9 µM
SMILES: NC(=O)c1cc2ccccc2n1-c1cccc(OCC(=O)O)c1

inhibition [6]: inactive
SMILES: NC(=O)c1cccn1-c1cccc(CCC(=O)O)c1

IC50 [3]: 20.7 µM
SMILES: NC(=O)c1cc2ccccc2n1Cc1cccc(C(=O)O)c1

IC50 [3]: 29.1 µM
SMILES: NC(=O)c1cc2ccccc2n1-c1cccc(C(=O)O)c1

IC50 [3]: 23.6 µM
SMILES: NC(=O)c1cc2ccccc2n1-c1cccc(/C=C/C(=O)O)c1

SMILES: CCc1c(C(=O)C(N)=O)c2c(OCC(=O)O)cccc2n1Cc1ccccc1 [VARESPLADIB]
IC50 (Phospholipase A2 group V): 0.124 µM

IC50 [2]: 2.3 µM | IC50 [5]: 1.9 µM | IC50 (Phospholipase A2 group V): > 10 µM | IC50 [3]: 0.16 µM
SMILES: NC(=O)c1cc2ccc(C3CC3)cc2n1-c1cccc(CCC(=O)O)c1

inhibition [1]: inactive | inhibition [4]: inactive | IC50 [3]: 0.62 µM
SMILES: COc1ccc2cc(C(N)=O)n(-c3cccc(CCC(=O)O)c3)c2c1

IC50 [3]: 4.8 µM
SMILES: CS(=O)(=O)NC(=O)CCc1cccc(-n2c(C(N)=O)cc3ccccc32)c1

IC50 [3]: 10.3 µM
SMILES: NC(=O)c1cc2ccccc2n1-c1cccc(CC(=O)O)c1

Vd [7]: 2.54 L/kg | bioavailability [8]: 100% | clearance [9]: 0.546 L/h/kg | AUC [10]: 8.78 µM·h | IC50 [2]: 0.31 µM | AUC [11]: 11 µM·h | AUC [12]: 1.84 µM·h | clearance [13]: 0.045 L/h/kg | IC50 [5]: 0.27 µM | IC50 (Phospholipase A2 group V): 2.23 µM | IC50 [3]: 0.026 µM | hepatocyte CLint at 1 µM [14]: 1.7 µL/min/1e6 cells | Vd [15]: 0.44 L/kg | IC50 [16]: 0.096 µM
SMILES: NC(=O)c1cc2ccc(OC(F)(F)F)cc2n1-c1cccc(CCC(=O)O)c1

inhibition [6]: inactive
SMILES: NC(=O)c1nc2ccccn2c1-c1cccc(CCC(=O)O)c1

IC50 [3]: 7.2 µM
SMILES: NC(=O)c1cc2ccccc2n1-c1cccc(C(=O)NCC(=O)O)c1

inhibition [1]: inactive | IC50 [2]: > 10 µM | IC50 [5]: 0.74 µM | IC50 [3]: 0.093 µM
SMILES: NC(=O)c1cc2ccc(OCC(F)(F)F)cc2n1-c1cccc(CCC(=O)O)c1

inhibition [1]: inactive | inhibition [4]: inactive | IC50 [3]: 2.8 µM
SMILES: NC(=O)c1cc2ccc(CO)cc2n1-c1cccc(CCC(=O)O)c1

IC50 [3]: 0.83 µM
SMILES: Cc1cccc2c1cc(C(N)=O)n2-c1cccc(CCC(=O)O)c1

IC50 [3]: 6.9 µM
SMILES: NC(=O)c1cc2ccccc2n1-c1cccc(C(F)(F)F)c1

inhibition [6]: inactive
SMILES: NC(=O)c1cc2ccsc2n1-c1cccc(CCC(=O)O)c1

inhibition [1]: inactive | inhibition [4]: inactive | IC50 [3]: 1.9 µM
SMILES: Cc1cccc2cc(C(N)=O)n(-c3cccc(CCC(=O)O)c3)c12

inhibition [1]: inactive | inhibition [4]: inactive | IC50 [3]: 0.26 µM
SMILES: NC(=O)c1cc2ccc(F)cc2n1-c1cccc(CCC(=O)O)c1
